Where two headings read alike, the source gives them in different places.
Assays:
[1] = molecular target: p38 (Homo sapiens, UniProt Q16539); assay: inhibition of p38 by CK1 inhibitors; format: biochemical; settings: p38α
[2] = molecular target: CK1 δ (Homo sapiens, UniProt P48730); assay: inhibition of CK1 δ by CK1 inhibitors; format: biochemical
Excerpt: (§1) Suitable assays can use a peptide substrate and a readout method, for example using the Kinase-Glo assay (Promega, part # V672A).

[3] = tested on: DUX4; assay: DUX4 repression, high-content immunocytochemistry assay in primary FSHD myotubes; format: cell-based, human; settings: for EC50: Homo sapiens, Myotube, read-out: EC50 DUX4
Excerpt: A quantitative assay readout was developed based on script-based image analysis. […] To analyse the images, an automated script was developed, enabling the detection of nuclei, myotube borders and DUX4 signals, with the script also detecting artefacts to reduce false positive signals. The script enabled multiple validated readouts including the number of DUX4 positive nuclei and nuclei clusters, the fusion index, myotube area, myotube width and myotube skeleton length (see FIG. 2). Additionally, the total nuclei count was included as a measure of cell loss or compound toxicity.
A compound library containing approximately 5000 annotated compounds was screened in the high-content assay. For this purpose, primary myoblasts were seeded in 384 well plates after which the growth medium was replaced with differentiation medium. After 3 days of differentiation, cells were treated with library compounds (in duplicate on different screening plates) for 15 h, after which they were fixed and stained with antibodies against DUX4, antibodies against myosin heavy chain (MHC), and with DAPI (4′,6-diamidino-2-phenylindole). Script-based analysis provided readouts for DUX4 expression (count of DUX4-positive nuclei or DUX4 intensity) and for potential toxicity (fusion index and nuclei count).
Compounds were incubated with primary FSHD cells for 15 hours, as indicated by the arrow in FIG. 4A.
Compounds are administered either 15 h before fixation, resembling the original screening protocol, or 72 h before fixation (grey arrow). In the latter case, compounds are present during the whole differentiation process.

[4] = molecular target: CK1 ε (Homo sapiens, UniProt P49674); assay: inhibition of CK1 ε by CK1 inhibitors; format: biochemical
CK1 ε, sequence (P49674 whole entry): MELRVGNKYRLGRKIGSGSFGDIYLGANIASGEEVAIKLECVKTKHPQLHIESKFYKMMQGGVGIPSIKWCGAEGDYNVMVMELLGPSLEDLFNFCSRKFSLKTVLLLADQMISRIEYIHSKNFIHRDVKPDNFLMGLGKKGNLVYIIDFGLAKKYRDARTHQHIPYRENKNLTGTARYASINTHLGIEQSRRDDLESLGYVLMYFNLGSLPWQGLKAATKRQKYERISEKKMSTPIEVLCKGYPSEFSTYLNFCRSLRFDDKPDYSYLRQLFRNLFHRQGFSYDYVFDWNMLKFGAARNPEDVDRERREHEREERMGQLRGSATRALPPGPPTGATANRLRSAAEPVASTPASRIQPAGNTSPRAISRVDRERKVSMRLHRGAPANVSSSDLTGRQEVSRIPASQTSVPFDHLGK
Excerpt: as §1

[5] = molecular target: CK1 α (Homo sapiens, UniProt P48729); assay: inhibition of CK1 α by CK1 inhibitors; format: biochemical
CK1 α, sequence (P48729 whole entry): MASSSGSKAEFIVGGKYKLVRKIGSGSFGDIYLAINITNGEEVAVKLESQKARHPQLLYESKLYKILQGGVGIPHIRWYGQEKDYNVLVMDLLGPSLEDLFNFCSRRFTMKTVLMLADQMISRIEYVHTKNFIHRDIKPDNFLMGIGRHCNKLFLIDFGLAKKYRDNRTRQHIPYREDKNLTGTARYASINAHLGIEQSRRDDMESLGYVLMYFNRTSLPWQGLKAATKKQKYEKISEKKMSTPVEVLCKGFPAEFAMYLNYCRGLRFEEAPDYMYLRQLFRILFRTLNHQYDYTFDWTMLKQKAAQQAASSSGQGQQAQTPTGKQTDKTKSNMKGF
Excerpt: IC50 values for CK1 can be determined using any method known in the art, for example as described in WO2011051858, WO2015119579, EP2949651, or US2005/0131012. Suitable assays can use a peptide substrate and a readout method, for example using the Kinase-Glo assay (Promega, part # V672A).

[6] = tested on: pancreatic tumor cell; settings: in vitro and in vivo; cited from earlier work
[7] = tested on: DUX4; settings: immortalised differentiated myotube cultures; cited from earlier work
[8] = primary FSHD cells, compound incubation 15 hours

p38, sequence (Q16539 whole entry): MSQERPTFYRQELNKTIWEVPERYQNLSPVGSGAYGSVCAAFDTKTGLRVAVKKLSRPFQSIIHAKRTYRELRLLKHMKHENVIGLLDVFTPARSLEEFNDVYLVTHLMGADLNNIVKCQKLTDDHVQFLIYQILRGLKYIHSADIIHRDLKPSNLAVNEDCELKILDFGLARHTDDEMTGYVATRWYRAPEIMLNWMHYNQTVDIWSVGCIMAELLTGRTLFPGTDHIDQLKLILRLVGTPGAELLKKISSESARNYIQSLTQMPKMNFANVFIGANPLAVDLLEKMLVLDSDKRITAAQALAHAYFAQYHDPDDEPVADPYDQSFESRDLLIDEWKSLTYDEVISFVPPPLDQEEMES
CK1 δ, sequence (P48730 whole entry): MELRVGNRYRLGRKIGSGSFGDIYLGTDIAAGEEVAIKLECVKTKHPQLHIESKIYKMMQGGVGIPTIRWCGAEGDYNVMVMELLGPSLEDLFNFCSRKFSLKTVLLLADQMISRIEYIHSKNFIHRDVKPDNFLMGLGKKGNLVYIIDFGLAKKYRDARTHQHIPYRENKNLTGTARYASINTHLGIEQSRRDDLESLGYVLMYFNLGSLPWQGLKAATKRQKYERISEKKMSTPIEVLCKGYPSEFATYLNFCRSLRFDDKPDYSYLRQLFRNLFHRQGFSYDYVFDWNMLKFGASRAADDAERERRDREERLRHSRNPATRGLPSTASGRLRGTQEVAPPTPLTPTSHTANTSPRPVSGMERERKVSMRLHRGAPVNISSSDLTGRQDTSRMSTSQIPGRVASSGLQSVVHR

Compound	IC50 [1] [nM]	IC50 [2] [nM]	EC50 [3, 8] [nM]	IC50 [4] [nM]	IC50 [5] [nM]	EC50 ([3]; 15 h) [nM]	pancreatic tumor cell growth [6]	expression of DUX4 [7]	effect on DUX4 expression ([3]; irrespective of treatment time (15 h or 72 h))
CC1(C)CN(c2ccc3nc(-c4ccc(F)cc4)c(-c4ccncc4)n3n2)CCN1 [Compound A]	13	19	50	12	30				
Cn1cc(-c2ccnc3c2C(=O)OC3)c(-c2ccc(F)cc2)n1 [Compound D]	569	33.1	1410	51.6	644				
CN1Cc2nccc(-c3cn(C)nc3-c3ccc(F)cc3)c2C1=O [Compound E]	1110				592	1890			
Cn1cc(-c2ccnc3c2C(=O)N(C2CCOCC2)C3)c(-c2ccc(F)cc2)n1 [Compound F]	677	18	2590	72	561				
Fc1ccc(-c2nc3ccc(N4CCNCC4)nn3c2-c2ccncc2)cc1 [Compound H]	25	22	10	16	33				
COc1cc(OC)c(C=C2C(O)=Nc3ccccc32)c(OC)c1 [IC261]							reduces pancreatic tumor cell growth		
Nc1nccc(-c2c(-c3ccc(F)cc3)ncn2C2CCCCC2)n1 [PF-670462, reference compound]	32		470		320				
Nc1nccc(-c2c(-c3ccc(F)cc3)ncn2C2CCN(Cc3ccon3)CC2)n1 [PF-5006739, reference compound]	74	20	820	27	123				
COc1cc(OC)c2c(=O)[nH]c(-c3cc(C)c(OCCO)c(C)c3)nc2c1 [RVX-208, reference compound]								can inhibit the expression of DUX4	did not show any effect on DUX4 expression
Fc1cccc(-n2cnc3c(NCc4nc5ccc(F)c(F)c5[nH]4)nc(N4CCOCC4)nc32)c1 [SR-3029, reference compound]	> 10000				> 10000	50			

From patent US10973820B2, “Compounds for treatment of diseases related to DUX4 expression” (Facio Intellectual Property B.V., priority 2017, dated 2021)
